Laboratory results published in US11370774B2, “Substituted benzofuran, benzopyrrole, benzothiophene, and structurally related complement inhibitors” (BioCryst Pharmaceuticals, Inc., priority 2018, dated 2022).
pIC50: −log10 of the molar value.

Molecular target: Factor D (Homo sapiens (Human), UniProt P00746)
Test: Factor D esterolytic assay (Z-Lys-SBzl substrate, DTNB, 405 nm)
Type: biochemical
Conditions: Z-Lys-SBzl 1.29 mM, pH 7.5, 10% DMSO, tested a minimum of three times, read-out: Measured Ki (IC50) Value for Compounds: IC50
Procedure: The IC50 value of a compound (i.e., the concentration of the compound that inhibits 50% of the enzymatic activity) was calculated according to the procedure reported in U.S. Pat. No. 6,653,340 B1, e.g., column 74 (incorporated by reference).
Specifically, the compounds were dissolved in a stock solution of DMSO at 10.0 or 100 mM. A portion of this stock solution was added to assay buffer in a final volume of 50 μL. Controls included buffer alone and enzyme solutions to which DMSO was added. Substrate was added to the reaction wells immediately or after incubation at room temperature. The reaction rates were measured spectrophotometrically by the generation of product at 405 nm for 600 sec. Background absorbance at 690 nm was measured and subtracted from the absorbance at 405 nm for each well.
The reaction rate for enzyme alone was compared to the rate of enzyme in the presence of inhibitor and the percent inhibition was calculated as shown below: Percent Inhibition=[Rate without inhibitor−Rate with inhibitor)/(Rate without inhibitor)]×100 Factor D Esterolytic Assay:
An established esterolytic assay for the measurement of Factor D activity and inhibition of Factor D activity was used (Kam, C. M.; McRae, B. J.; Harper, J. W.; Niemann, M. A.; Volanakis, J. E.; Powers, J. C. Human complement proteins D, C2, and B Active site mapping with peptide thioester substrates. J Biol. Chem. 1987, 262, 3444-3451). For this assay Z-Lys-SBzl, 1.29 mM (Kim, S.; Narayana, S. V. L; Volanakis, J. E. Mutational analysis of the substrate binding site of human complement Factor D. Biochemistry. 1994, 33, 14393-14399.) was used as the substrate for Factor D ([…]). Hydrolysis of this compound by Factor D liberated a free sulfhydryl group which is then reacted with 5,5′-dithiobis(2nitrobenzoic acid) producing an intense yellow color (Habeeb, A. F. S. A. Reaction of protein sulfhydryl groups with Ellman's Reagent. Methods in Enzymol. 1976, 25, 457-464). The assays were performed in 96 well microtiter plates and rates of hydrolysis were monitored at 405 nm on a Biotek Synergy H1 plate reader. Hydrolysis rates were reported as change in mOD/min. The assay was conducted in 100 mM HEPES, 500 mM NaCl, pH 7.5 containing 10% DMSO in a final volume of 50 μL per well.
An IC50, a compound concentration which inhibits 50% of the enzymatic activity, was calculated. Compounds in the examples were tested a minimum of three times.

Sequence of Factor D (P00746 26-253): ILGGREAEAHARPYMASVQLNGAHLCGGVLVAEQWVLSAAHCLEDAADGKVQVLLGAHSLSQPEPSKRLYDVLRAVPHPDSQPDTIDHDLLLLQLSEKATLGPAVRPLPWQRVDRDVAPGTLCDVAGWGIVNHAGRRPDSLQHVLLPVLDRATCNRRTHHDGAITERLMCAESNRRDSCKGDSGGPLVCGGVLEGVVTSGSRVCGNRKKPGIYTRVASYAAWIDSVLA

Structure (SMILES)	pIC50
NCc1cccc(-c2cc(C(=O)Nc3ccccc3CC(=O)O)cc3cccnc23)c1 [Compound 13c, 2-(2-(8-(3-(aminomethyl)phenyl)quinoline-6-carboxamido)phenyl)acetic acid]	5.00 to 6.00
CCOC(=O)Cc1ccccc1NC(=O)c1cc(-c2cccc(CN)c2)c2cc[nH]c2n1 [Compound 14c, ethyl 2-(2-(4-(3-(aminomethyl)phenyl)-1H-pyrrolo[2,3-b]pyridine-6-carboxamido)phenyl)acetate]	< 5.00
NCc1cccc(-c2cc(C(=O)Nc3ccccc3CC(=O)O)nc3[nH]ccc23)c1 [Compound 14d, 2-(2-(4-(3-(aminomethyl)phenyl)-1H-pyrrolo[2,3-b]pyridine-6-carboxamido)phenyl)acetic acid]	5.00 to 6.00
CCOC(=O)Cc1ccccc1NC(=O)c1cc(-c2cccc(CN)c2)c2occc2c1 [Compound 15c, ethyl 2-(2-(7-(3-(aminomethyl)phenyl)benzofuran-5-carboxamido)phenyl)acetate]	< 5.00
NCc1cccc(-c2cc(C(=O)Nc3ccccc3CC(=O)O)cn3cnnc23)c1 [Compound 17c, 2-(2-(8-(3-(aminomethyl)phenyl)-[1,2,4]triazolo[4,3-a]pyridine-6-carboxamido)phenyl)acetic acid]	< 5.00
NCc1cc(F)cc(-c2cc(C(=O)Nc3ccccc3CC(=O)O)cc3[nH]ccc23)c1 [Compound 19c, 2-(2-(4-(3-(aminomethyl)-5-fluorophenyl)-1H-indole-6-carboxamido)phenyl)acetic acid]	> 6.00
NCc1cccc(-c2cc(C(=O)Nc3ccccc3CC(=O)O)c3ncnn3c2)c1 [Compound 20e, 2-(2-(6-(3-(aminomethyl)phenyl)-[1,2,4]triazolo[1,5-a]pyridine-8-carboxamido)phenyl)acetic acid]	< 5.00
NCc1cc(F)cc(-c2nc(C(=O)Nc3ccccc3CC(=O)O)c3cccn3n2)c1 [Compound 21d, 2-(2-(2-(3-(aminomethyl)-5-fluorophenyl)pyrrolo[2,1-f][1,2,4]triazine-4-carboxamido)phenyl)acetic acid]	> 6.00
NCc1cccc(-c2cc(COc3ccccc3CC(=O)O)cc3ccoc23)c1 [Compound 23e, 2-(2-((7-(3-(aminomethyl)phenyl)benzofuran-5-yl)methoxy)phenyl)acetic acid]	> 6.00
NCc1cccc(-c2cc(COc3ccccc3CC(=O)O)cc3oc(Cl)cc23)c1F [Compound 24b, 2-(2-((4-(3-(aminomethyl)-2-fluorophenyl)-2-chlorobenzofuran-6-yl)methoxy)phenyl)acetic acid]	> 6.00

The next lines start with the values.

pIC50	Structure (SMILES)
> 6.00	NCc1cccc(-c2cc(C(=O)Nc3ccccc3CC(=O)O)cc3nn(CC4CC4)cc23)c1 [Compound 11b, 2-(2-(4-(3-(aminomethyl)phenyl)-2-(cyclopropylmethyl)-2H-indazole-6-carboxamido)phenyl)acetic acid]
> 6.00	NCc1nccc(-c2cc(COc3ccccc3CC(=O)O)cc3[nH]ccc23)c1F [Compound 12c, 2-(2-((4-(2-(aminomethyl)-3-fluoropyridin-4-yl)-1H-indol-6-yl)methoxy)phenyl)acetic acid]
> 6.00	NCc1cccc(-c2cc(C(=O)Nc3ccccc3CC(=O)O)cc3ccoc23)c1 [Compound 15d, 2-(2-(7-(3-(aminomethyl)phenyl)benzofuran-5-carboxamido)phenyl)acetic acid]
> 6.00	NCc1cccc(-c2nc(C(=O)Nc3ccccc3CC(=O)O)nc3c2ccn3CC2CC2)c1 [Compound 16i, 2-(2-(4-(3-(aminomethyl)phenyl)-7-(cyclopropylmethyl)-7H-pyrrolo[2,3-d]pyrimidine-2-carboxamido)phenyl)acetic acid]
> 6.00	NCc1cccc(-c2cc(C(=O)Nc3ccccc3CC(=O)O)cc3ccccc23)c1 [Compound 18f, 2-(2-(4-(3-(aminomethyl)phenyl)-2-naphthamido)phenyl)acetic acid]
